Reference: patent US10517853B2, “Methods for treating epilepsy” (PTC Therapeutics, Inc., priority 2015, dated 2019)

Experiments:
[1] = test system: SCN1A nonsense mutation W192X (UAG premature stop); experiment: Luciferase reporter readthrough assay, SCN1A nonsense mutation W192X construct in 293H cells; assay type: cell-based; settings: 293H cells transfected with construct SCN1A-Trp192x; decreasing concentrations starting at 3 uM; 24 hours; FIG. 4
Text: (§1) Luciferase reporter constructs were generated to evaluate readthrough activity of compounds at premature stop codons present in SCN1A and CDKL5 mRNA sequences. FIG. 1 is a schematic of the reporter construct used to monitor readthrough activity of SCN1A nonsense mutation W192X (UAG premature stop). FIG. 2 is a schematic of the reporter construct used to monitor readthrough activity of CDKL5 nonsense mutation R59X (UGA premature stop). FIG. 3 is a schematic of the reporter construct used to monitor readthrough activity of CDKL5 nonsense mutation R550X (UGA premature stop). In each of the constructs, luciferase reporter is flanked by a 3XHA epitope tag at the amino-terminus and a FLAG epitope tag at the C-terminus. An intron from the TPI gene was inserted in the luciferase gene. Sequences from SCN1A (see FIG. 1) and CDKL5 (see FIGS. 2 and 3) harboring disease-associated nonsense mutations were introduced in-frame with the reporter sequence such that readthrough at the premature stop codon results in the production of a functional luciferase protein.
(§2) 293H cells were transfected with either construct SCN1A-Trp192x (FIG. 1), construct CDKL5-R59X (FIG. 2), or construct CDKL5-R550X (FIG. 3). […] The ability of ataluren to promote readthrough at the premature stop codon in each of the constructs was measured and reported as the relative light units (y-axis). […]

[2] = test system: CDKL5 nonsense mutation R59X (UGA premature stop); experiment: Luciferase reporter readthrough assay, CDKL5 nonsense mutation R59X construct in 293H cells; assay type: cell-based; settings: 293H cells transfected with construct CDKL5-R59X; decreasing concentrations starting at 3 uM; 24 hours; FIG. 5
Text: as §1, §2

[3] = test system: CDKL5 nonsense mutation R550X (UGA premature stop); experiment: Luciferase reporter readthrough assay, CDKL5 nonsense mutation R550X construct in 293H cells; assay type: cell-based; settings: 293H cells transfected with construct CDKL5-R550X; decreasing concentrations starting at 3 uM; 24 hours; FIG. 5
Text: as §1, §2

CYP2C9 = CYP2C9 (Homo sapiens, UniProt P11712); experiment: CYP2C9 inhibition; assay type: in vitro ADME
Sequence of CYP2C9 (P11712 whole entry): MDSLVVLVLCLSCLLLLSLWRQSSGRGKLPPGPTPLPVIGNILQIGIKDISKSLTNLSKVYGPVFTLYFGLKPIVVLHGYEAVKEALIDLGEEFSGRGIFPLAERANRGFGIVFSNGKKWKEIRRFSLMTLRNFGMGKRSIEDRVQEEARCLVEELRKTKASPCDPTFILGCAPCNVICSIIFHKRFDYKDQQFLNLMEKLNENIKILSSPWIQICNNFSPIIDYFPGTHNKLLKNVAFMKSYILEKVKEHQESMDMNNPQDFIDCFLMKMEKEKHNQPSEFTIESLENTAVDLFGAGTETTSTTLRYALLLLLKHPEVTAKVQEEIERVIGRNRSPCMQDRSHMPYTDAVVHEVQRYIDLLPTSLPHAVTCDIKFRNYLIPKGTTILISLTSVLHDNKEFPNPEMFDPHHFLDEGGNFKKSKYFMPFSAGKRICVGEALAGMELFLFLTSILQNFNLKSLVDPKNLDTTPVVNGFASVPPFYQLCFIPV

CYP2C8 = biological target: T1, CYP2C8 (Homo sapiens, UniProt P10632); experiment: CYP2C8 inhibition; assay type: in vitro ADME
T1 sequence (P10632 1-490): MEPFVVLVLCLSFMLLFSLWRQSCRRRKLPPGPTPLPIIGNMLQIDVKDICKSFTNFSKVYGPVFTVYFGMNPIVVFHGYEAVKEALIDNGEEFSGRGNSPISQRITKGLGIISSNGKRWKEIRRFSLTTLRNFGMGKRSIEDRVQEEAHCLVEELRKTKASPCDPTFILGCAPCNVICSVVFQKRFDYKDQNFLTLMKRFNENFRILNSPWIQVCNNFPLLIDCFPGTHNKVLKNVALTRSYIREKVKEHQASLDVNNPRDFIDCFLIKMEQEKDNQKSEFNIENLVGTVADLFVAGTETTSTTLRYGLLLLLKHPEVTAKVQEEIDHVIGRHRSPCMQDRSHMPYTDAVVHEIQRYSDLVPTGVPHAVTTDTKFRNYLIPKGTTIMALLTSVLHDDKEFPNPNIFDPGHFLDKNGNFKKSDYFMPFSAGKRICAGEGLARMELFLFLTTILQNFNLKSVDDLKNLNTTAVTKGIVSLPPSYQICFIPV

inhibition of CYP2C9 (CYP2C9): weak inhibitor
inhibition of CYP2C8 (CYP2C8): weak inhibitor
Structure (SMILES): O=C(O)c1cccc(-c2noc(-c3ccccc3F)n2)c1 [ataluren, 3-[5-(2-fluoro-phenyl)-[1,2,4]oxadiazol-3-yl]-benzoic acid]
readthrough at the premature stop codon (luciferase, relative light units; fold increase compared to DMSO) [1]: promotes concentration-dependent readthrough
readthrough at the premature stop codon (luciferase, relative light units; fold increase compared to DMSO) [2]: promotes concentration-dependent readthrough
readthrough at the premature stop codon (luciferase, relative light units; fold increase compared to DMSO) [3]: promotes concentration-dependent readthrough
